Reference: paper PMC11813147, “Bioactivity assessment of peptides derived from salted jellyfish (Rhopilema hispidum) byproducts” (PLOS ONE, 2025)

Legend:
[1] = tested on: angiotensin I-converting enzyme (ACE); assay: ACE inhibitory activity assay (fluorometric ACE activity assay kit); assay type: biochemical
Method: The ACE inhibitory activity assay was performed following the method outlined by Batista et al., with slight modifications, using a fluorometric angiotensin I-converting enzyme (ACE) activity assay kit from Sigma-Aldrich (catalog number CS0002), Burlington, Massachusetts, USA. In summary, 10 µ L of the sample (1 mg/mL for the peptide sample and 50 µg/mL for ramipril) was combined with 40 µ L of the ACE solution (CS0002B) in 96-well flat-bottom black plates at 37 °C for 5 min. Next, 50 µ L of the substrate solution (CS0002C) was added to this mixture to initiate the reaction. A fluorescence multiwell plate reader was used to monitor the changes in fluorescence. The sample’s fluorescence was measured every min for 5 min, with excitation at 320 nm and emission at 405 nm. All reagents, except the test sample, were prepared to assess the ACE positive control activity. A kit standard solution (CS0002D) was diluted with assay buffer (CS0002A) to create different concentrations (nmol) of the standard solution, allowing generation of a standard curve. The slope of the standard curve (RFU/nmol) and the slope of the sample kinetic curve were utilized to calculate the ACE activity using the following equation (3):
ACEactivitynmol/min=Slopesample/Slopestandard×DF (3)
Where Slopesample refers to the slope of the blank-subtracted sample curve (RFU/min), Slopestandard refers to the slope of the blank-subtracted standard curve (RFU/nmol), DF is the dilution factor, and 0.1 nmol/min is equivalent to […].
In this study, the results of ACE inhibitory activity are expressed as percentages. The ACE inhibitory activity (%) was calculated using the following equation (4):
ACEinhibitoryactivity%=ACEPC–ACES/ACEPC×100 (4)
Where ACEPC represents the ACE activity of the positive control, and ACES denotes the ACE activity of the sample.

RAW 264.7 [2] = assay: Cytotoxicity assessment (MTT); assay type: cell-based, Murine; details: peptide 10 µg/mL, 72 h
Method: (§1) Murine macrophage cells (RAW 264.7; ATCC TIB-71™) were cultured in Dulbecco’s Modified Eagle’s Medium (DMEM) that was supplemented with 10% heat-inactivated fetal bovine serum (FBS) and 1% antibiotic solution. Colorectal adenocarcinoma cells (CaCo-2; ATCC HTB 37™) were cultured in Eagle’s Minimum Essential Medium (EMEM), also supplemented with 10% heat-inactivated FBS and 1% antibiotic solution. Both cell types were maintained in a humidified incubator with 5% CO2. The cell culture medium was refreshed every three days.
Cytotoxicity assessment was performed following the method described by Yang et al., with slight modifications. RAW 264.7 was seeded with 1 x 10^5 cells in a 96-well plate with an appropriate cell culture medium. After allowing the cells to attach, the medium was replaced with a fresh cell culture medium containing the peptide samples at a concentration of 10 µg/mL. The treated cells were incubated for an additional 72 h. At the designated time, fresh medium was added, which included 3-(4,5-dimethylthiazol-2-yl)-2,5-diphenyltetrazolium bromide (MTT) at a concentration of 0.5 mg/mL. After 3 h, formazan crystals were observed. The medium was then removed, and the crystals were dissolved in 100% dimethyl sulfoxide (DMSO). A microplate reader (Synergy HTX; Biotek, Multi-Mode Reader, Winooski, VT, USA) was utilized to measure the absorbance at 570 nm (measurement wavelength) and 630 nm (reference wavelength). The percentage of cell viability was calculated relative to untreated cells using the following equation (5):
Cellviability%=ODtreatment–ODblank/ODuntreated–ODblank×100 (5)
Where ODtreatment is the absorbance of the treated sample, ODuntreated is the absorbance of the untreated sample, and ODblank is the absorbance from wells without treated and untreated samples.

[3] = DPPH radical scavenging assay; assay type: biochemical; details: supplement tables; for DPPH, mean±SD: n = 3
Method: The DPPH radical scavenging activity of the sample was assessed following a modified protocol based on a previous study. In each well of a 96-well plate, 10 μL of the sample was added, followed by 190 μL of 0.1 mM DPPH solution in 70% ethanol. The mixture was then incubated at room temperature in the dark for 30 min. After the incubation period, the absorbance of the mixture was measured at 517 nm. The DPPH radical scavenging activity was calculated using the following equation (1):
DPPHradicalscavengingactivity%=Acontrol–Asample/Acontrol×100 (1)
In this equation, Acontrol represents the absorbance of a control solution containing all reagents except for the test samples, while Asample is the absorbance of the mixture (the sample combined with 0.1 mM DPPH). To determine the Trolox equivalent antioxidant capacity (TEAC), a Trolox standard curve was utilized. The results were expressed as millimoles of Trolox equivalents per milligram of protein (mM TE/mg protein).

[4] = Ferric reducing antioxidant power (FRAP) assay; assay type: biochemical
Method: The FRAP assay was conducted following the method outlined by Rumpf et al.. The FRAP solution was prepared by mixing 300 mM acetate buffer (pH 3.6), 10 mM TPTZ (2,4,6-Tris(2-pyridyl)-s-triazine) in 40 mM hydrochloric acid, and 20 mM FeCl3 in a ratio of 10:1:1. In a 96-well plate, 10 μL of the sample was combined with 190 μL of the FRAP solution and incubated in the dark for 15 min. The absorbance of the mixture was then measured at 593 nm. FeSO4 was used to create the standard curve, and the results were expressed as millimoles of FeSO4 equivalent per milligram of protein (mM FeSO4/mg protein).

RAW 264.7 [5] = assay: Anti-inflammation assay: released NO in LPS-stimulated RAW 264.7 (Griess); assay type: cell-based, Murine; details: then 1 µg/mL LPS 24 h; for Released NO: peptide 10 µg/mL 1 h; for Released NO, mean±SD: peptide 10 µg/mL pre-treatment 1 h, Griess reagent, n = 3
Method: as §1
The anti-inflammation assay was conducted following the method described by Barzkar et al. with slight modifications. RAW 264.7 (1 x 10^5 cells) was seeded into a 96-well plate to allow for cell attachment. After 24 h, the cells were pre-treated with fresh medium containing peptide samples at a concentration of 10 µg/mL for 1 h. Subsequently, the treated cells were stimulated with 1 µg/mL lipopolysaccharide (LPS) for an additional 24 h. Unstimulated cells were included as a negative control. At the end of the treatment period, the conditioned medium was collected for the determination of released nitric oxide (NO). Griess’s reagent (Promega) was utilized to measure the NO concentration, following the manufacturer’s instructions. A NO calibration curve was generated to quantify the released NO in the conditioned medium.

[6] = ABTS radical scavenging assay; assay type: biochemical; details: supplement tables; for ABTS, mean±SD: n = 3
Method: The ABTS radical scavenging activity of the sample was measured using a method adapted from Mirzaei et al.. The ABTS radical was generated by mixing 7 mM ABTS with 2.45 mM potassium persulfate in a 1:1 ratio and incubating the mixture in the dark at room temperature for 12 to 16 h. The resulting solution was then diluted to achieve an absorbance of 0.74 ± 0.03 at 734 nm, using deionized water for adjustments. Next, 10 μL of the sample was added to 190 μL of the ABTS solution. The mixture was incubated in the dark for 7 min, after which the absorbance was measured at 734 nm. The ABTS radical scavenging activity (%) was calculated using the following equation (2):
ABTSradicalscavengingactivity%=Acontrol–Asample/Acontrol×100 (2)
In this equation, Acontrol refers to the absorbance of the control solution (which contains all reagents except the test samples), while Asample refers to the absorbance of the mixture containing the sample and the ABTS solution. To determine the Trolox equivalent antioxidant capacity (TEAC), a Trolox standard curve was used, and the results were expressed as millimoles of Trolox equivalents per milligram of protein (mM TE/mg protein).

[7] = peptide sample 1 mg/mL, 37 °C, fluorescence ex 320/em 405 nm, mean ± SD, n = 3, SD
[8] = peptide sample 1 mg/mL, replicate 1
[9] = peptide sample 1 mg/mL, replicate 2
[10] = peptide sample 1 mg/mL, replicate 3
[11] = 10 µL sample + 190 µL FRAP solution, 15 min dark, 593 nm, FeSO4 standard curve, mean ± SD, n = 3, SD

Molecule | Cell viability (RAW 264.7 [2]; replicate 1) | Cell viability (RAW 264.7 [2]; replicate 2) | Cell viability (RAW 264.7 [2]; replicate 3) | ACE inhibitory activity [1, 8] | ACE inhibitory activity [1, 9] | ACE inhibitory activity [1, 10] | DPPH, mean±SD [3] | DPPH ([3]; replicate 1) | DPPH ([3]; replicate 2) | DPPH ([3]; replicate 3) | FRAP ([4]; supplement tables, replicate 1) | FRAP ([4]; supplement tables, replicate 2) | FRAP ([4]; supplement tables, replicate 3) | Released NO (RAW 264.7 [5]; replicate 1) | Released NO (RAW 264.7 [5]; replicate 2) | Released NO (RAW 264.7 [5]; replicate 3) | Released NO, mean±SD (RAW 264.7 [5]) | ABTS, mean±SD [6] | ABTS ([6]; replicate 1) | ABTS ([6]; replicate 2) | also measured
CCOC(=O)[C@H](CCc1ccccc1)N[C@@H](C)C(=O)N1[C@H](C(=O)O)C[C@@H]2CCC[C@@H]21 [Ramipril, ramipril, reference compound] |  |  |  |  |  |  |  |  |  |  |  |  |  |  |  |  |  |  |  |  | ACE inhibitory activity, mean±SD ([1]; ramipril 50 µg/mL, mean ± SD, n = 3, SD): 23.23±0.44^G %; ACE inhibitory activity, mean±SD ([1]; ramipril 50 µg/mL, mean ± SD, n = 3, listed as ramipril, SD): 23.23 ± 0.44%; ACE inhibitory activity ([1]; ramipril 50 µg/mL, replicate 1): 22.79%; ACE inhibitory activity ([1]; ramipril 50 µg/mL, replicate 2): 23.23%; ACE inhibitory activity ([1]; ramipril 50 µg/mL, replicate 3): 23.67%
EIILIPMF [P3, synthesized peptide identified from jellyfish fraction PUR20C] | 75.57% | 75.92% | 75.39% | 33.58% | 33.87% | 34.16% | 2.93 TE/mg protein | 2.84 TE/mg protein | 2.58 TE/mg protein | 3.37 TE/mg protein | 9.31 mM FeSO4/mg protein | 9.31 mM FeSO4/mg protein | 9.10 mM FeSO4/mg protein | 37.58 µM | 35.17 µM | 37.24 µM | 36.66 ± 1.30 µM | 3.17 TE/mg protein | 3.31 TE/mg protein | 2.71 TE/mg protein | ACE inhibitory activity, mean±SD [1, 7]: 33.87±0.28^E %; FRAP [4, 11]: 9.24±0.12 mM FeSO4/mg protein; ABTS ([6]; replicate 3): 3.51 TE/mg protein
LMFMAVAFF [P12, synthesized peptide identified from jellyfish fraction PUR20C] | 76.97% | 73.98% | 74.86% | 49.61% | 43.60% | 49.33% | 2.75 TE/mg protein | 2.58 TE/mg protein | 2.58 TE/mg protein | 3.11 TE/mg protein | 16.26 mM FeSO4/mg protein | 17.31 mM FeSO4/mg protein | 16.68 mM FeSO4/mg protein | 36.89 µM | 38.62 µM | 40.00 µM | 38.50±1.55^B µM | 0.64±0.30^M TE/mg protein | 0.90 TE/mg protein | 0.30 TE/mg protein | ACE inhibitory activity, mean±SD [1, 7]: 47.51±3.39^D %; FRAP [4, 11]: 16.75±0.52^B mM FeSO4/mg protein; ABTS ([6]; replicate 3): 0.70 TE/mg protein
NFTVLCDSLE [P10, synthesized peptide identified from jellyfish fraction PUR20C] | 85.41% | 84.35% | 86.29% | 11.25% | 9.82% | 8.39% | 45.99±1.10^B TE/mg protein | 46.34 TE/mg protein | 44.75 TE/mg protein | 46.87 TE/mg protein | 20.05 mM FeSO4/mg protein | 21.10 mM FeSO4/mg protein | 18.36 mM FeSO4/mg protein | 35.86 µM | 35.17 µM | 38.27 µM | 36.43 µM | 98.00±0.50^G TE/mg protein | 97.47 TE/mg protein | 98.07 TE/mg protein | Cell viability, mean±SD (RAW 264.7 [2]; relative to untreated cells, mean ± SD, n = 3, SD): 85.35%; inhibition [1, 7]: 9.82 ± 1.43%; ABTS ([6]; replicate 3): 98.47 TE/mg protein
